Values quoted from earlier work in US6663901B1, “Pellets having a core coated with an antifungal and a polymer” (Janssen Pharmaceutical N.V., priority 1998, dated 2003).

solubility in water: only very sparingly soluble
SMILES: CCC(C)n1ncn(-c2ccc(N3CCN(c4ccc(OCC5COC(Cn6cncn6)(c6ccc(Cl)cc6Cl)O5)cc4)CC3)cc2)c1=O (racemic) [itraconazole, (±)-cis-4-[4-[4-[4-[[2-(2,4-dichlorophenyl)-2-(1H-1,2,4-triazol-1-methyl)-1,3-dioxolan-4-yl]methoxy]phenyl]-1-piperazinyl]phenyl]-2,4-dihydro-2-(1-methylpropyl)-3H-1,2,4-triazol-3-one]
